Measured values reported in patent US20140186268A1, “Oxide Ferrimagnetics with Spinel Structure Nanoparticles and Iron Oxide Nanoparticles, Biocompatible Aqueous Colloidal Systems Comprising Nanoparticles, Ferriliposomes, and Uses Thereof” (priority 2011, published 2014).

Tests used:
[1] = test system: orthotopic allograft mouse breast cancer model; test: Doxorubicin treatment, orthotopic allograft mouse breast cancer model; type: in vivo; settings: single dose 15 mg/kg, two weeks after administration
Description: Doxorubicin hydrochloride (Sigma) was dissolved in ferromagnetic iron oxide nanoparticles containing stabilizing buffer and then encapsulated into PEGylated liposomes. Three weeks after transplantations of primary cells (average tumour volume 75 mm^3) ferriliposomes loaded with doxorubicin were administered at a dose of 15 mg/kg (Dox+FLt, n=4). Magnets of 0.33 T (diameter 4.5 mm) were glued to the tumour by cyanoacrylate before injection and removed by acetone 24 hours after administration. Control group was treated with systemic administration of doxorubicin without any targeting (Dox, n=4). The horizontal and vertical tumour diameters were measured by digital calliper twice per week and volumes were calculated using the formula V=(a×b2)π/6 where a and b are the longer and shorter diameter of the tumour, respectively.

[2] = parameters: species or system rats; settings: rat, in vivo, 500 mg/kg
Description: Female rats were treated with 500 mg/kg of iron oxide nanoparticles (n=16) and stabilizing buffer (n=8) as control. […] were sacrificed at day 7 and 12 after injection. Blood was collected and serum separation performed by centrifugation in Li-heparin 0.6 ml flasks (Fuji Photo Film Co., Ltd. Life Science Products Division). Biochemical parameters of creatinine, urea nitrogen, alanine transaminase, aspartate transaminase, creatine phosphokinase and total bilirubin in blood were analyzed by biochemical analyzer Fujifilm DRI CHEM 3500i (Fuji Photo Film Co., Ltd. Life Science Products Division). The kidneys, spleen, liver, heart and lung tissues were collected and fixed in 10% neutral formalin. Organs were dehydrated and maintained in paraffin blocks. 5 μm paraffin sections were stained by hematoxylin and eosin for histo-pathological analysis. iron oxide nanoparticles were detected in animal tissues by Prussian blue staining with carmine (Sigma).

Molecule | reduction of tumour volume [1] | histo-pathological analysis of lung, liver, kidney and spleen [2]
COc1cccc2c1C(=O)c1c(O)c3c(c(O)c1C2=O)C[C@@](O)(C(=O)CO)C[C@@H]3O[C@H]1C[C@H](N)[C@H](O)[C@H](C)O1 [doxorubicin] | 60% | –
Fe3O4 [iron oxide nanoparticles] | – | No morphological changes
